The text below walks through data of patent US20150118293A1, “NOVEL DELIVERY SYSTEM FOR ANTICANCER DRUG BASED ON SHORT-CHAIN- LENGTH POLYHYDROXYALKANOATE NANOPARTICLES” (priority 2013, published 2015).

The subject of one series is cancer cells line A549. Description: in vitro cytotoxicity, MTT viability assay. The settings on record: free EPT, concentration not given. The series is classed as cell-based. On the procedure:
The cellular toxicity of blank and EPT loaded scl-PHA nanoparticles as prepared in Example 2 were determined by using cancer cells line A549. The cells were cultured in Dulbecco's Modified Eagle's Medium (DMEM) containing 1% (v/v) Penicillin-Streptomycin (P/S, 10,000 U) antibiotic and 10% (v/v) Fetal Bovine Serum (FBS) and incubated for 24 h at 37° C. and 5% CO2. When cells grew to reach 95% confluence, they were detached from the cell culture flasks using trypsin-EDTA. The cell suspension was centrifuged at 900 rpm for 5 min and then resuspended in culture medium to get the final concentration of 1×10^5 cells/mL. About 200 μL of the cell suspensions were transferred to each well of a clear, flat bottom 96-well plate (Costar) and incubated for 24 h. On treatment day, medium was removed and fresh medium containing 4-fold serial dilutions i.e., 250.0 μg/mL (4 times), 62.5 μg/mL (8 times) and 1.6 μg/mL (12 times) of blank and EPT loaded scl-PHA nanoparticles was added. The toxicity of the nanoparticles was checked after 24, 48 and 72 h of treatment using 3-(4,5-dimethylthiazole-2-yl)-2,5-diphenyl tetrazolium (MTT) viability assay. About 5 mg of MTT was dissolved in 1 mL physiological buffer saline (PBS) solution, followed by 10 times dilution in culture medium. About 100 μL of MTT solution were added to each well after the removal of treatments and incubated for 4 h before the addition of 100 μl, of the solubilization solution (anhydrous isopropanol containing 0.1 N HCl and 10% Triton X-100). The plates were then incubated overnight and absorbance was taken at 570 nm on a microplate reader (BMG FLUOstar OPTIMA) and subtracted from the background signals at 690 nm. The cell % inhibition was calculated relative to wells containing only cell cultures without nanoparticles by using the following formula: […]

For series [1] the following is noted: neutral pH; cited from earlier work.

Molecules are shown by their SMILES.

As for `Cc1c2ccncc2c(C)c2c1[nH]c1ccccc12` [EPT, 5,11-dimethyl-6H-pyrido[4,3-b]carbazole], the “Relative % inhibition for A549 cells” value in the series with cancer cells line A549 (24 h) is 10.02 ± 0.86%; with cancer cells line A549 (48 h), 25.40 ± 1.35%; in the series with cancer cells line A549 (72 h), 32.38%. Moreover, in series [1], the water solubility result is “approximately 0.62 mM”.
